Data published in patent US20210046143A1, “METHOD FOR TREATMENT OF THE HUMAN BODY BY THERAPY BY ADMINISTERING A COMPOSITION COMPRISING A PLANT EXTRACT OF THE SPECIE HEDYCHIUM CORONARIUM” (Societe D'exploitation De Produits Pour Les Industries …, priority 2016, published 2021).

What was measured:
[1] = test system: IL-8; assay: IL-8 release by human skin explants, pollution model (BaP), ELISA; assay type: cell-based; settings: PMA 1 μg/ml systemic, 24 h, without pollution
Method: b)—The product was systemically applied for 24 hours, on human skin explants (diameter of 8 mm), provided by Biopredic™ International (Rennes), which derived from mammary plastic surgery (person);
c)—The product was then applied again during pollution, for another 24 hours. Said pollution was induced in this model by application of an environmental pollutant, benzo(a)pyrene (3,4-benzopyrene/BaP) as systemic treatment, i.e. in the culture medium. This pollutant induces IL-8 release (SEPhRA results).
a)—A 2% (DE) HCR extract is diluted in the culture medium to obtain a 0.1% (DE) HCR extract, which is used as the test compound.
b)—Said HCR extract was systemically applied on the skin explants as a twenty-four hours pre-treatment. […]
e)—In order to validate the IL-8 titration, an additional condition was evaluated, i.e. stimulation with a reference pro-inflammatory molecule PMA (Phorbol 12-myristate 13-acetate, Sigma P8139), at 1 μg/ml. […]
d)—The inflammatory cytokine IL-8 was then measured out with a commercial kit from Bio-Techne/R&Dsystems (D8000C), which is an ELISA method. […] Titration raw data were obtained by measuring the absorbance or the optical density (OD) at 450 nm wavelength, with 570 nm as a reference.
e)—The concentrations of IL-8 measured in the samples were determined by using a concentration range of an IL-8 standard. […]

[2] = test system: murine B16 melanocytes (B16-F0 line); assay: Melanin titration in B16 melanocytes (melanogenesis); assay type: cell-based; settings: Mus musculus, B16F0; kojic acid 1 mM; read-out: Inhibition of the melanin release in the culture medium
Method: • 1)—Background Information The aim of this study is to evaluate the effects of HCR extracts on melanogenesis in an in vitro model of murine B16 melanocytes. Cells used in this study were murine melanocytes (B16-F0 line, LGC standards, ATCC-CRL-6322) extracted from murine skin. This cells lines synthesizes a great quantity of melanin which is released in the culture media (so called supernatants), so a titration by spectrophotometry is easy to achieve. These melanocytes were cultured as monolayers; the test compounds were applied during seventy two hours and the synthesized melanin was then released and measured out in the supernatants. A XTT assay was previously performed, to check the cells viability, in order to determine the concentrations to be tested, as described in Example 2. • 2)—Dose Determination (CytotoxicityNiability Check by XTT Assay) and Evaluated Test Compound
B16 melanocytes were seeded in 24-wells plates. […]
Cells were seeded into 24-wells plates (at a cell density of […], i.e. 31,250 B16/cm^2), in the same medium as previously described, one day before treatment (incubation at 37° C./5% CO2). […] After 48 or 72 hours of treatment, the supernatants were homogenized and aliquots were transferred to 96-well plates for spectrophotometry reading at 492 nm wavelength (reading in duplicate). […]

CCCCCCCCCCCCCC(=O)O[C@@H]1[C@@H](C)[C@@]2(O)[C@@H](C=C(CO)C[C@]3(O)C(=O)C(C)=C[C@@H]23)[C@@H]2C(C)(C)[C@]12OC(C)=O [PMA, Phorbol 12-myristate 13-acetate]
IL-8 release, change compared to untreated/unpolluted control [1]: +224%

O=c1cc(CO)occ1O [kojic acid]
inhibition at 1000 µM [2]: > 90%
